The text below walks through data of patent publication EP4656640A1, “IRAK4 DEGRADER AND USE THEREOF” (Shanghai Qilu Pharmaceutical Research and Development …, priority 2023, dated 2024).

Like-named read-outs stand apart in the source and are kept apart here.

In one series the target is hERG potassium channel (Homo sapiens, UniProt Q12809). The experiment in a line: Inhibition of hERG potassium channel, whole-cell manual patch clamp in CHO-hERG cells. The conditions noted are these: @ 1 µM test compound. Background: Block of hERG is tested as a sign of cardiac risk.
Sequence of hERG potassium channel (Q12809 whole entry): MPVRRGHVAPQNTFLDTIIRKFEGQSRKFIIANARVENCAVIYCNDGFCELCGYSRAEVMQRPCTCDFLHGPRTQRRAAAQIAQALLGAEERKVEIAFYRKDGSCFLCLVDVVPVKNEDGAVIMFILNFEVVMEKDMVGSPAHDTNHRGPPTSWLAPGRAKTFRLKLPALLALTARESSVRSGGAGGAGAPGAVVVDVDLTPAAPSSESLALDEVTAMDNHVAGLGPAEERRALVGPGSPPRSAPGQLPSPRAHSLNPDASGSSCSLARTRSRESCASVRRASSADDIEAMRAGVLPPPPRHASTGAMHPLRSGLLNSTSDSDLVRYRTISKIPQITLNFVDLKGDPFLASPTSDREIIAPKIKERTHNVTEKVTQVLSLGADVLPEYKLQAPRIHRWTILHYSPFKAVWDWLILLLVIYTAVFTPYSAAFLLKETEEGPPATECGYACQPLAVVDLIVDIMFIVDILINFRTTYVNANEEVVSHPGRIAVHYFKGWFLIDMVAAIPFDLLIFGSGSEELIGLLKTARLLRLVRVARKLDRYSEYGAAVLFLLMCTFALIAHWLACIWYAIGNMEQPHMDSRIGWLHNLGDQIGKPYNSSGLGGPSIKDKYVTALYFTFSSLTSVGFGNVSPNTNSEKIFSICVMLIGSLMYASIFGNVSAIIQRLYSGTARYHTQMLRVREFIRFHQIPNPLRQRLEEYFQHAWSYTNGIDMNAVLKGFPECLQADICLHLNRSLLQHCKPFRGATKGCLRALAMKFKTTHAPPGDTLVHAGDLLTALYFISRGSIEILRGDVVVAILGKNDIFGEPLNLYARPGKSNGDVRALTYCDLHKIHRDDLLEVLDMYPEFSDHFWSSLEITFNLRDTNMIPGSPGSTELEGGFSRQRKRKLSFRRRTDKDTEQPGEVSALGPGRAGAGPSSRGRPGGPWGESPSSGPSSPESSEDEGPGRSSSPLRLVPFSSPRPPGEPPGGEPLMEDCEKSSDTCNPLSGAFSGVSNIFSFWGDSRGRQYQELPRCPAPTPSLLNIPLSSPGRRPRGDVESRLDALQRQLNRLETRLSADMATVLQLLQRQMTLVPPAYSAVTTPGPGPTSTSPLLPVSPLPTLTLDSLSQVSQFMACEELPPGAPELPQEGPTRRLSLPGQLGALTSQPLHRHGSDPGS
A short description of series [1]: Dog pharmacokinetics, oral gavage (Experiment 3). Format: in vivo. The conditions noted are these: Beagle dogs, oral gavage 2.5 mg/kg, plasma. On the procedure: Healthy Beagle dogs, male, weighing about 8-10 kg, 3 animals per group.
The animals were not fasted and had free access to water.
Venous blood (0.5-0.8 mL) was collected at 15 minutes, 30 minutes, 1 hour, 2 hours, 4 hours, 8 hours, and 24 hours after oral gavage administration, placed in K2EDTA tubes, and centrifuged at 4°C to separate plasma. The concentration of the compound in plasma was determined by liquid chromatography-tandem mass spectrometry.
The main pharmacokinetic parameters were calculated using WinNonlin. […] Table 8. Pharmacokinetic parameters of some compounds of the present disclosure administered orally to dogs

For another series, the target named is T1, IRAK4 (Homo sapiens, UniProt Q9NWZ3).
T1 sequence (Q9NWZ3 1-460): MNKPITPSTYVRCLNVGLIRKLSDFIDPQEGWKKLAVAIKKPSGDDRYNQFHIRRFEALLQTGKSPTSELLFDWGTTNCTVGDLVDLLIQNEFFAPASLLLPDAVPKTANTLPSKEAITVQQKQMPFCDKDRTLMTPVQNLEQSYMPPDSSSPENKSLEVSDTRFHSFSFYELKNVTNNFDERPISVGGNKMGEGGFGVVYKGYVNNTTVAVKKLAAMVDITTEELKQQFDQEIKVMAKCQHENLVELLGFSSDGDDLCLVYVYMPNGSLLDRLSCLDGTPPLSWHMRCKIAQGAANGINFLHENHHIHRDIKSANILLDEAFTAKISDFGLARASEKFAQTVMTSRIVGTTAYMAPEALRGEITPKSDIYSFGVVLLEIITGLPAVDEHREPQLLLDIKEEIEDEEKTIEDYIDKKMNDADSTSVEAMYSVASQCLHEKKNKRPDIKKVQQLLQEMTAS
The experiment in a line: Degradation of IRAK4 in monocytes of human PBMCs (flow cytometry). Format: cell-based. More on the design: endogenous in cells. The following applies: human PBMC monocytes, 24 hours incubation. On the procedure:
The degradation level of IRAK4 in monocytes of human peripheral blood mononuclear cells (hPBMCs) was detected by flow cytometry.
On day 1, the cells were seeded at a density of 2 × 10^5 cells per well in 100 µL in a 96-well plate.
The compounds were dissolved in DMSO to a final concentration of 10 mM, and then diluted with culture medium at a 1:5 concentration gradient to prepare 10 concentrations. The diluted solutions were added to the cells to obtain a maximum final concentration of 2 µM. Wells containing cells treated with 0.1% DMSO served as the positive control
The cells were incubated at 37°C in a 5% CO2 incubator for 24 hours.
The cells were stained for viability discrimination using the LIVE/DEAD™ Fixable Blue Dead Cell Stain Kit, and surface staining of monocytes was performed with PE Mouse Anti-Human CD14, followed by incubation at 4°C for 30 minutes.
Fix buffer I, equal in volume to the cultured cells, was added, and the cells were fixed at 37°C for 10 minutes.
150 µL of Perm III reagent was added, and the cells were incubated at 4°C for 30 minutes to permeabilize the membranes.
Flow cytometry analysis was performed using a flow cytometer.
The flow cytometry data were analyzed using Flowjo software. Data presentation and DC50 calculation were performed using Prism 8.0.2 (GraphPad).

The subject of another series is TNFα secretion. Briefly: Inhibition of induced TNFα secretion in human PBMCs (CBA). Format: cell-based. The following applies: PBMC. On the procedure:
(§1) The effect of PROTAC small molecules on inflammatory factors in PBMCs downstream of IRAK4 induced by TLR and IL-1 was detected based on the CBA (cytometric bead array) method.
(§2) Step 2: The density of PBMCs was adjusted to 1 E6/mL, and 150 µL of PBMCs in 1640 complete medium were seeded into a 96-well plate, followed by incubation at 37°C for 1 hour.
(§3) Step 3: 50 µL of serially diluted small molecule (working concentration: 10000 nM, 1:3 dilution) drugs were inoculated into the plate in a 37°C incubator for 8 hours.
(§4) Step 4: 10 µL of stimulants were added respectively, with final concentrations of 100 ng/mL for LPS, 1 µg/mL for R848, and 100 ng/mL for IL-1β.
(§5) Step 5: CBA assay. The concentrations of IL-6 and TNF-α in the cell culture supernatant were determined using Hu IL-6 CBA Flex Set A7 and Hu TNF- CBA Flex Set D9.
(§6) Step 6: Standard samples were prepared: 2500 pg/mL, 1250 pg/mL,...0. A 1:2 serial dilution was performed to obtain 10 concentrations.
(§7) Step 7: The mixed capture beads were resuspended in capture bead diluent (1:50), and cell culture supernatant (50 µL) was added, followed by incubation at room temperature for 10 minutes.
(§8) Step 8: The detection reagent prepared with detection diluent was added, and the mixture was incubated in the dark at room temperature for 3 hours. At the end of incubation, the samples were washed once with wash buffer and resuspended for detection.
(§9) The concentrations of IL-6 and TNFα were calculated using the standard curve method. Data presentation and IC50 calculation were performed using Prism 8.0.2.

A further series relates to IL-6 secretion. Briefly: Inhibition of induced IL-6 secretion in human PBMCs (CBA). The format is cell-based. The conditions noted are these: PBMC. On the procedure: as §1, §2, §3, §4, §5, §6, §7, §8, §9
[2] abbreviates: IL-1β 100 ng/mL, read-out: IC50, TNFα secretion induced by IL-1β.
Where [3] appears, read: LPS 100 ng/mL, read-out: IC50, TNFα secretion induced by LPS.
[4] abbreviates: R848 1 µg/mL, read-out: IC50, TNFα secretion induced by R848.
Setting [5] is: IL-1β 100 ng/mL, read-out: IC50 of compounds against induced secretion, IL-6, IL-1β.
[6] abbreviates: LPS 100 ng/mL, read-out: IC50 of compounds against induced secretion, IL-6, LPS.
Setting [7] is: R848 1 µg/mL, read-out: IC50 of compounds against induced secretion, IL-6, R848.

One may read the AUC(0-t) as the area under the concentration-time curve up to a stated or last time point. High values mean high exposure, low ones low exposure. The term Cmax denotes the peak of the concentration-time curve. By MRT inf is commonly meant the average time that molecules of a dose stay in the body. As a reminder, the half-life is the time needed for the level to fall by half in the phase considered. Usually DC50 stands for the concentration at which degradation of the target reaches its halfway point. Read a low DC50 as degradation at low concentration. As a reminder, the IC50 is the point on the concentration scale where inhibition reaches its midpoint.

Description for hERG potassium channel: The effects of compounds on hERG potassium channel (human Ether-a-go-go Related Gene potassium channel) currents were tested using the whole-cell manual voltage-clamp electrophysiological method.
CHO cells stably expressing hERG were cultured in cell culture dishes with a diameter of 35 mm and incubated at 37°C in a 5% CO2 incubator. The cells were passaged at a ratio of 1:5 every 48 hours. The culture medium was formulated as follows: 90% F12 (Invitrogen), 10% fetal bovine serum (Gibco), 100 g/mL G418 (Invitrogen), and 100 g/mL Hygromycin B (Invitrogen). On the day of the experiment, the cell culture medium was aspirated, and the cells were rinsed once with extracellular solution. […] The digestion solution was aspirated, and the cells were resuspended in extracellular solution and then transferred to experimental dishes for electrophysiological recording for later use.
On the day of testing, the compounds were prepared as 10 mM stock solutions in DMSO, then diluted to 1 mM with DMSO, and further diluted 1000-fold with extracellular solution to obtain the desired final test concentration.
hERG potassium channel currents were recorded at room temperature using the whole-cell patch-clamp technique in CHO cells stably expressing the hERG channel. The glass microelectrode was prepared by pulling the glass electrode blank (BF150-86-10, Sutter) with a puller, and the tip resistance after filling with the internal electrode solution was about 2-5 MΩ. The glass microelectrode was inserted into the amplifier probe and then connected to the patch-clamp amplifier. The clamping voltage and data recording were controlled and recorded by pClamp software via a computer, with a sampling frequency of 10 kHz and a filtering frequency of 2 kHz. After obtaining the whole-cell recording, cells were clamped at -100 mV. The hERG potassium current (IhERG) was evoked by applying a 2 s depolarizing voltage step from -100 mV to +20 mV, followed by repolarization to -50 mV for 1 s before returning to -100 mV. […]
Data were analyzed and processed using pClamp, GraphPad Prism 8 and Excel software. […]

In the case of `Cn1c(=O)n(C2CCC(=O)NC2=O)c2cccc(C#CCOC34CCC(CN5CCC6(CC5)CC(n5cc(NC(=O)c7cnn8ccc(N9C[C@H]%10C[C@@H]9CO%10)nc78)c(C(F)F)n5)C6)(CC3)CC4)c21` (stereo partly drawn) [Example 52], the “hERG (inhibition%)” value on hERG potassium channel came out at 16% @ 1 µM. The exposure AUC(0-t) at 24 h in series [1] amounted to 1160 ng·h/mL. This molecule displayed a Cmax in series [1] of 78 ng/mL. In addition, the mean residence time (MRT inf) in series [1] was found to be 20.2 h. This molecule also gave a half-life in series [1] of 13.4 h. At IRAK4, this molecule gave a half-maximal degradation concentration (DC50) of 0.65 nM. For the same molecule, the IC50 with TNFα secretion (setting [2]) was found to be 13.9 nM; in the series with TNFα secretion (setting [3]), 8.5 nM; with TNFα secretion (setting [4]) it was 21.5 nM; in the series with IL-6 secretion (setting [5]) it was 8.9 nM; in the series on IL-6 secretion (setting [6]), 8.4 nM; in the series with IL-6 secretion (setting [7]) it was 20.3 nM.

For `Cn1c(=O)n(C2CCC(=O)NC2=O)c2cccc(C#CCCN3CCC4(CC3)CC(n3cc(NC(=O)c5cnn6ccc(N7C[C@H]8C[C@@H]7CO8)nc56)c(C(F)F)n3)C4)c21` (stereo partly drawn) [Example 22], the “hERG (inhibition%)” value on hERG potassium channel is given as 36% @ 1 µM. The AUC(0-t) at 24 h in series [1] turned out to be 1190 ng·h/mL. The highest level in series [1] (Cmax) was 100 ng/mL. The molecule further came in with a mean residence time (MRT inf) in series [1] of 11.2 h. In series [1], this molecule gave a half-life of 7.6 h. Moreover, the 50% degradation concentration (DC50) on IRAK4 was 0.13 nM. Moreover, the IC50 with TNFα secretion (setting [2]) was determined as 0.16 nM; in the series on TNFα secretion (setting [3]), 1.2 nM; in the series with TNFα secretion (setting [4]) it was 1.4 nM; in the series with IL-6 secretion (setting [5]) it was 1 nM; in the series on IL-6 secretion (setting [6]), 0.5 nM; in the series on IL-6 secretion (setting [7]), 0.16 nM.
